The target of one test is T1, IDH2-R140Q mutant enzyme (Homo sapiens, UniProt P48735, R140Q).
T1 construct: purchased BPS 71100-1
T1 sequence (P48735 40-452 R140Q): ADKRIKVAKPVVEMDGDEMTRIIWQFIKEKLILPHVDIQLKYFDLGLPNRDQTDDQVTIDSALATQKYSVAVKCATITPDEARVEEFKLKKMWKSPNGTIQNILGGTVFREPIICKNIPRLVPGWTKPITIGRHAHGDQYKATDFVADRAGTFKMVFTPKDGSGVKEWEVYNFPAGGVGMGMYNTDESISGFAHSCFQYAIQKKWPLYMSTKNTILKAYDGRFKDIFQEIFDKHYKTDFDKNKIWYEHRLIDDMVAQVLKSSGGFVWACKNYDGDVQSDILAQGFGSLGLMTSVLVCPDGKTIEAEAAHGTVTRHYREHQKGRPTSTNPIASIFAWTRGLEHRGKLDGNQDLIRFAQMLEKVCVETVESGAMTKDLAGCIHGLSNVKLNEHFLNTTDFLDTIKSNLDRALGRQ
Kind of test: Inhibitory activity of compounds on IDH2-R140Q enzyme in vitro (diaphorase/resazurin fluorescence). It counts as biochemical. The settings on record: IDH2-R140Q, pre-incubated 16 h with enzyme and NADPH, reaction 1 h with α-ketoglutarate; read-out: R140Q IC50. Here is the method: Instrument: SpectraMax M3 Multi-Mode Microplate Reader, purchased from Molecular Devices.
In a 96-well plate, 40 μL of reaction buffer containing 2× enzyme (IDH2-WT or IDH2-R140Q) and cofactor (NADP or NADPH) was added to each well of the compound group and the DMSO control group, and 40 μL of reaction buffer containing 2× cofactor (NADP or NADPH) was added to each well of the enzyme-free control group.
20 μL of reaction buffer containing 4× compound to be tested was added to each well of the compound group. The compound was pre-formulated into 200× mother liquor with 100% DMSO; in the final reaction system, the concentration of DMSO was 0.5%. 20 μL of reaction buffer containing DMSO was added to each well of the DMSO control group; in the final reaction system, the concentration of DMSO was 0.5%.
The compound was mixed well with the enzyme and cofactor, and pre-incubated at room temperature for 16 h;
20 μL of reaction buffer containing 4× reaction substrate was added to each well. After mixed uniformly, the mixture was reacted at room temperature for 1 h.
3× termination and detection solution (it was prepared with reaction buffer, the final concentration of Diaphorase was 0.015 mg/mL, and the final concentration of Resazurin was 0.03 mM) was prepared. 40 μL of 3× termination and detection solution was added to each well of the enzyme reaction system. After mixed uniformly, the mixture was incubated at room temperature for 10 min;
Fluorescence values of two wells were obtained and averaged and the activity rate (Activity %) was calculated. The calculation formula: Activity %=(Measured data−Subtract background)/(DMSO Control−Subtract background)×100, wherein “Measured data” is fluorescence value of the compound in the pre-incubated wells, “Subtract background” is the fluorescence value of the enzyme-free control wells, and “DMSO Control” is the fluorescence value in the DMSO pre-incubated wells. Data was processed by GraphPad Prism v5.0 software and fitted to obtain IC50.
For orientation: Resazurin is reduced to fluorescent resorufin, in cell work by metabolically active cells.

For test [1], the target named is T2, U87-MG cell line of overexpressed mutant IDH2 (R140Q) (Homo sapiens, UniProt P48735, R140Q).
T2 construct: expressed in transfected cells
T2 sequence (P48735 40-452 R140Q): T1 sequence (P48735 40-452 R140Q)
Kind of test: Cell activity in vitro: 2-HG in culture supernatant of U87-MG (IDH2-R140Q) cells by LC-MS/MS. It counts as cell-based. The note with it: U87-MG (IDH2-R140Q) cells, 72 hours, 2-HG in supernatant; read-out: IC50 (2-HG remaining compared to untreated). The protocol:
1.2 Cells: human glioblastoma cell line U87-MG, purchased from the American Type Culture Collection (ATCC);
Cell recovery: U87-MG (IDH2-R140Q) cells and U87-MG cells were put into a 37° C. water bath, then transferred to 15 mL of pre-warmed medium, centrifuged at 1000 rpm for 5 minutes, and the medium was discarded. The cells were resuspended in 15 mL of fresh medium, transferred to a T75 flask and cultured in a 37° C. incubator with 5% CO2. After 24 hours, the medium was changed to fresh medium.
Cell passage: The above-mentioned recovered cells were transferred to a 50 mL sterile centrifuge tube, centrifuged at 1000 rpm for 5 minutes, and the medium was discarded. The cells were resuspended evenly and counted. The cell density was adjusted appropriately in a 15 mL fresh medium, and then added to T75 culture flask. The culture flask was incubated in an incubator with 5% CO2 at 37° C.
After cells grown to a relatively high density in the culture dish, the cells were trypsinized, resuspended in medium (MEM+10% FBS), and counted. After adjusting the cell concentration, the resuspended cells were seeded in a 96-well plate at 5×10^3 cells per well. After inoculation, the cells were cultured for 24 hours until the cells adhered. The medium were sucked out, and the medium containing gradient concentration of compound was added, 100 μL per well. The cells were further cultured for 72 hours. The s 20 μL of upernatant was taken and put into a 2 mL 96-well sample-processing plate. 480 μL of dilution solution was added and shaken for mixing, and then centrifuged at 4500 rpm for 5 minutes. 200 μL of supernatant was transferred for LC-MS/MS injection analysis.
Column: Shim-pack XR-ODS 30L*2.0; mobile phase: acetonitrile-0.2% ammonia, 5 mM ammonium acetate aqueous solution; column temperature: 30° C.; flow rate: 0.4 mL/min; gradient elution conditions are as follows: […]
Atmospheric […] chemical ionization (APCI) was used. Source parameters was set as follows: IonSpray Voltage/IS-4500V; auxiliary gas 1 (Ion Source Gas 1/GS 1, N2), 55Arb; auxiliary gas 2 (Ion Source Gas 2, N2), 55Arb; auxiliary gas heating temperature (Temperature/TEM), 500° C.; curtain gas/CUR, 25Arb; collision gas/CAD, N2, 8 Pa.
Multi-ion reaction monitoring (MRM) in negative ion mode (Negative) was used. […] The internal standard (IS) MRM parameters: parent ion (Q 1 Mass), 178.0 Da; daughter ion (Q3 Mass), 149.0 Da; Decluster Potential (DP), −51V; collision voltage (Collision Energy/CE), −17 eV
By determining the 2-HG content in the cell culture supernatant of each well using LC-MS/MS, the mutant enzyme activity (2-HG remaining compared to untreated %) was calculated. The calculation formula: 2-HG remaining compared to untreated %=(Measured 2-HG level—U87-MG control 2-HG level)/(Untreated 2-HG level—U87-MG control 2-HG level)×100. […] Data were processed by GraphPad Prism v5.0 software and fitted to obtain IC50.

Test [2] has as its system U87-MG (IDH2-R140Q) subcutaneous xenograft tumor. Kind of test: Subcutaneous xenograft tumor caused by U87-MG (IDH2-R140Q) mutant cells in vivo: intratumor 2-HG. The note with it: U87-MG (IDH2-R140Q) subcutaneous xenograft model. Further details: species or system BALB/c nude mice. The text has this: 1.2 Animals: BALB/c nude mice, 6-7 weeks old, female, 18-22 g, purchased from Nanjing Jinlaichang Company.
U87-MG (IDH2-R140Q) cells and U87-MG cells (wild type) were expanded, and cells in logarithmic growth phase were used for tumor inoculation in vivo. 16 mice were inoculated subcutaneously into the right lower back of the body at an amount of 2×10^6 cells/mouse (the volume ratio of cell suspension to Matrigel was 1:0.8).
The non-mutation control group was nude mice inoculated with U87-MG cells, and the test compound groups and vehicle control group were nude mice inoculated with U87-MG (IDH2-R140Q) cells.
Each group was intragastrically administered with a corresponding concentration of the compound solution, the administration volume was 100 μL/10 g body weight, and the control group was administered the same volume of blank vehicle.
After 10 days of administration, the mice were sacrificed. The tumors were exfoliated, homogenized, and the 2-HG content in the tumor was examined.
The 2-HG concentration in the homogenate of each animal tumor in each group was determined by LC-MS/MS. The percentage (2-HG %) was calculated; the calculation formula is as follows 2-HG %=(2-HG concentration of administration group tumor−2-HG concentration of U87-MG control group tumor)/(2-HG concentration of U87−MG(IDH2-R140Q) control group tumor−2-HG concentration of U87-MG control group tumor)×100%.

Each structure is given as a SMILES string.

As to `CC1(O)CN(c2nc(Nc3ccnc(C(F)(F)F)c3)nc(-c3cccc(C(F)(F)F)n3)n2)C1` [Example 33], the IC50 at IDH2-R140Q mutant enzyme worked out at 29.2 nM; in test [1], 10.2 nM.

For `OC1CN(c2nc(Nc3ccnc(C(F)(F)F)c3)nc(-c3cccc(C(F)(F)F)n3)n2)C1` [Example 32], the IC50 on IDH2-R140Q mutant enzyme was 26.5 nM; in test [1] it was 36.1 nM. For `CC(C)ONc1nc(Nc2ccnc(C(F)(F)F)c2)nc(-c2cccc(C(F)(F)F)n2)n1` [Example 27], the concentration for half-maximal inhibition (IC50) at IDH2-R140Q mutant enzyme was 12.5 nM; in test [1], 31.2 nM. The corresponding values for `CC(Oc1nc(Nc2ccnc(C(F)(F)F)c2)nc(-c2cccc(C(F)(F)F)n2)n1)C(F)(F)F` (stereo not shown) [Example 44, 4-(6-(Trifluoromethyl)pyridin-2-yl)-N-(2-(trifluoromethyl)pyridin-4-yl)-6-((1,1,1-trifluoroisopropyl-2-yl)oxy)-1,3,5-triazin-2-amine] are 8.8 nM and 5.1 nM. For `FC(F)(F)c1cc(Nc2nc(-c3cccc(C(F)(F)F)n3)nc(N3CCOCC3)n2)ccn1` [Example 4, 4-Morpholinyl-6-(6-(trifluoromethyl)pyridin-2-yl)-N-(2-(trifluoromethyl)pyridin-4-yl)-1,3,5-triazin-2-amine], the results for the 50% inhibitory concentration (IC50) (on IDH2-R140Q mutant enzyme; in test [1]) were 15 nM and 21 nM, respectively. For `CCN(CC(C)(C)O)c1nc(Nc2ccnc(C(F)(F)F)c2)nc(-c2cccc(C(F)(F)F)n2)n1` [Example 31, 1-(Ethyl(4-(6-(trifluoromethyl)pyridin-2-yl)-6-((2-(trifluoromethyl)pyridin-4-yl)amino)-1,3,5-triazin-2-yl)amino)-2-methylpropan-2-ol], in that order: 21.3 nM and 38.1 nM.

Regarding `CC(C)(O)CCc1nc(Nc2ccnc(C(F)(F)F)c2)nc(-c2cccc(C(F)(F)F)n2)n1` [Example 41, 2-Methyl-4-(4-(6-(trifluoromethyl)pyridin-2-yl)-6-((2-(trifluoromethyl)pyridin-4-yl)amino)-1,3,5-triazin-2-yl)-3-butan-2-ol], the IC50 on IDH2-R140Q mutant enzyme worked out at 16.1 nM; in test [1], 10.1 nM. `O[C@]1(C(F)(F)F)CCN(c2nc(Nc3ccnc(C(F)(F)F)c3)nc(-c3cccc(C(F)(F)F)n3)n2)C1` [Example 22A, (R)-4-(3-trifluoromethyl-3-hydroxypyrrolidin-1-yl)-6-(6-(trifluoromethyl)pyridin-2-yl)-N-(2-(trifluoromethyl)pyridin-4-yl)-1,3,5-triazin-2-amine]: the “ability of lowering 2-HG level compared with positive compound AG-221” value in test [2] is listed as “substantially superior”. `FC1(F)CN(c2nc(Nc3ccnc(C(F)(F)F)c3)nc(-c3cccc(C(F)(F)F)n3)n2)C1` [Example 35, 4-(3,3-Difluoroazetidin-1-yl)-6-(6-(trifluoromethyl)pyridin-2-yl)-N-(2-(trifluoromethyl)pyridin-4-yl)-1,3,5-triazin-2-amine]: the IC50 worked out at 8.3 nM on IDH2-R140Q mutant enzyme and 9.8 nM in test [1].

Consider `CC(C)(O)/C=C/c1nc(Nc2ccnc(C(F)(F)F)c2)nc(-c2cccc(C(F)(F)F)n2)n1` [Example 40, 2-Methyl-4-(4-(6-(trifluoromethyl)pyridin-2-yl)-6-((2-(trifluoromethyl)pyridin-4-yl)amino)-1,3,5-triazin-2-yl)-3-buten-2-ol], for which the concentration for half-maximal inhibition (IC50) in test [1] was 33.1 nM. As to `OC1(C(F)(F)F)CCN(c2nc(Nc3ccnc(C(F)(F)F)c3)nc(-c3cccc(C(F)(F)F)n3)n2)CC1` [Example 38, 4-(Trifluoromethyl)-1-(4-(6-(trifluoromethyl)pyridin-2-yl)-6-((2-(trifluoromethyl)pyridin-4-yl)amino)-1,3,5-triazin-2-yl)piperidin-4-ol], the half-maximal inhibitory concentration (IC50) at IDH2-R140Q mutant enzyme came out at 25.2 nM; in test [1] it was 59.1 nM.

As for `CN(C)Nc1nc(Nc2ccnc(C(F)(F)F)c2)nc(-c2cccc(C(F)(F)F)n2)n1` [Example 29], the half-maximal inhibitory concentration (IC50) on IDH2-R140Q mutant enzyme is 5.8 nM; in test [1], 17.1 nM. The corresponding values for `FC(F)(F)COc1nc(Nc2ccnc(C(F)(F)F)c2)nc(-c2cccc(C(F)(F)F)n2)n1` [Example 43, 4-(2,2,2-Trifluoroethoxy)-6-(6-(trifluoromethyl)pyridin-2-yl)-N-(2-(trifluoromethyl)pyridin-4-yl)-1,3,5-triazin-2-amine] are 5.8 nM and 9.6 nM. With `CC(C)Oc1nc(Nc2ccnc(C(F)(F)F)c2)nc(-c2cccc(C(F)(F)F)n2)n1` [Example 42, 4-Isopropoxy-6-(6-(trifluoromethyl)pyridin-2-yl)-N-(2-(trifluoromethyl)pyridin-4-yl)-1,3,5-triazin-2-amine], the results for the concentration for half-maximal inhibition (IC50) (on IDH2-R140Q mutant enzyme; in test [1]) were 5.1 nM and 8.1 nM, respectively.

Regarding `CC(C)(C)ONc1nc(Nc2ccnc(C(F)(F)F)c2)nc(-c2cccc(C(F)(F)F)n2)n1` [Example 28, 4-(Tert-Butoxyamino)-6-(6-(trifluoromethyl)pyridin-2-yl)-N-(2-(trifluoromethyl)pyridin-4-yl)-1,3,5-triazin-2-amine], the half-inhibitory concentration (IC50) on IDH2-R140Q mutant enzyme worked out at 12.2 nM; in test [1], 25.1 nM.

In general, IC50 refers to the concentration that inhibits the measured activity by half.

These data come from patent publication US10961222B2, “Chemical compound of isocitrate dehydrogenase inhibitor, and application thereof” (NANJING SANHOME PHARMACEUTICAL CO., LTD., priority 2016, dated 2021).
